Results on one molecule are retold here after patent US20040047831A1, “Use of a cell extract of at least a plant of the family pontederiaceae as anti-pollution agent” (priority 2000, published 2004).

The data set relates to human keratinocytes. Nature of the data set: Cytotoxicity of cadmium chloride toward human keratinocytes in culture (intracellular glutathione, monochlorobimane probe), in the presence or absence of hyacinth extract. The settings on record: 24 hours; for toxicity toward human keratinocytes: human keratinocytes in vitro. Type of data set: cell-based. As to the method: Heavy metals such as cadmium, nickel, lead, mercury, etc. can lead to cytotoxicity on the cells of various organs including the skin. The cytotoxic effect of cadmium on human keratinocytes in culture was evaluated by means of a technique using a fluorescent probe to measure the level of intracellular glutathione (J. C. Fernandez Checa et al. 1990, R. Kannan et al. 1993).
The study was performed on a monolayer culture of human keratinocytes obtained from plastic surgeries. The cells are inoculated on D-3 into 96-well culture dishes at a rate of 25 000 cells/cm^2 in 100 μl of culture medium (calf serum-free defined medium, NR2, Biofluids). The incubations are performed in an incubator at 37° C. under a humid atmosphere enriched with 5% CO2.
The cells are treated for 24 hours with increasing concentrations (0, 10, 25, 50, 75, 100, 150 and 200 μM) of cadmium chloride (CdCl2) alone, so as to determine its cytotoxicity. In parallel, a treatment is performed under the same conditions, but in the presence of hyacinth extract (0.125%). The incubations are performed in an incubator at 37° C., [lacuna]% CO2 under a humid atmosphere.
At the end of the contact period, labeling of the intracellular glutathione is performed using a specific fluorescent probe: monochlorobimane (MCB).
Briefly, after treatment, rinse the cells with buffer (PBS) so as to remove the treatment solutions.
Add 100 μl per well of a 1 mM MCB solution over one hour at room temperature and protected from light.
Eliminate the MCB, and add 200 μl/well of PBS buffer.
Read on the spectrofluorimeter (excitation: 380 nm; emission: 485 nm).
The fluorescence obtained is proportional to the amount of glutathione conjugated to the MCB.
Calculate the concentration of CdCl2 that results in a 50% drop in the level of glutathione (=IC.50)

With `[Cl][Cd][Cl]` [cadmium chloride], the IC50 (CdCl2 alone, human keratinocyte monolayer, concentration giving 50% drop in glutathione level/cell viability, 3 independent experiments, read-out: IC.50 of cadmium chloride without protecting agent, Mean ± SEM) turned out to be 43.7 µM. Also, the “toxicity toward human keratinocytes” value reads like this: (listed as Cadmium chloride) “considerable toxicity”; (listed as cadmium) “strong toxicity”.
